Measurements reported in ChEMBL document CHEMBL1221304, “Proline isosteres in a series of 2,4-disubstituted pyrrolo[1,2-f][1,2,4]triazine inhibitors of IGF-1R kinase and IR kinase” (Bioorg Med Chem Lett, 2010).

Legend:
[1] = target: T1, Insulin-like growth factor 1 receptor (Homo sapiens, UniProt P08069); assay: Inhibition of IGF1R
[2] = target: T1, Insulin-like growth factor 1 receptor; assay: Inhibition of IGF1R in IGF1R-SAL cells; format: cell-based
[3] = Permeability by PAMPA assay; format: ADME; settings: for Papp: read-out: permeability

T1 sequence (P08069 31-736 limits assumed): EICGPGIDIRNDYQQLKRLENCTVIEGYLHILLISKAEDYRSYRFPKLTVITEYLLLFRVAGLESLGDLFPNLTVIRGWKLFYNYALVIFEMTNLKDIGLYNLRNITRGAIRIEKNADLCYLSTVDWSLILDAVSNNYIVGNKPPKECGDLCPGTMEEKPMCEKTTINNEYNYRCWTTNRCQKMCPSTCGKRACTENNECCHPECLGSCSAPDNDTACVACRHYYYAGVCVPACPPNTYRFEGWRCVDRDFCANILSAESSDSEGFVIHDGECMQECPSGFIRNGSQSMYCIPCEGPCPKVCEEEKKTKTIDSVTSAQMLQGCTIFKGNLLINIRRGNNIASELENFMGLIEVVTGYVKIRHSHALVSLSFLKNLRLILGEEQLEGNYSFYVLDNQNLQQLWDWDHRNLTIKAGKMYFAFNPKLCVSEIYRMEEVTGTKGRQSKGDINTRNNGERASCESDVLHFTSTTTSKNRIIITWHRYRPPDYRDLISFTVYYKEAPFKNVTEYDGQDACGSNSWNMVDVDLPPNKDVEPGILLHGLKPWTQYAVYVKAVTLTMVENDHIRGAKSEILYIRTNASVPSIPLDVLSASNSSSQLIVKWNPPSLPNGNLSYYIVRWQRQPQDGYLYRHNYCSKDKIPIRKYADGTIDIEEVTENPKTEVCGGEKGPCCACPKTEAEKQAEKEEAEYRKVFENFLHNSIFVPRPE
T1 sequence (P08069 741-1367 limits assumed): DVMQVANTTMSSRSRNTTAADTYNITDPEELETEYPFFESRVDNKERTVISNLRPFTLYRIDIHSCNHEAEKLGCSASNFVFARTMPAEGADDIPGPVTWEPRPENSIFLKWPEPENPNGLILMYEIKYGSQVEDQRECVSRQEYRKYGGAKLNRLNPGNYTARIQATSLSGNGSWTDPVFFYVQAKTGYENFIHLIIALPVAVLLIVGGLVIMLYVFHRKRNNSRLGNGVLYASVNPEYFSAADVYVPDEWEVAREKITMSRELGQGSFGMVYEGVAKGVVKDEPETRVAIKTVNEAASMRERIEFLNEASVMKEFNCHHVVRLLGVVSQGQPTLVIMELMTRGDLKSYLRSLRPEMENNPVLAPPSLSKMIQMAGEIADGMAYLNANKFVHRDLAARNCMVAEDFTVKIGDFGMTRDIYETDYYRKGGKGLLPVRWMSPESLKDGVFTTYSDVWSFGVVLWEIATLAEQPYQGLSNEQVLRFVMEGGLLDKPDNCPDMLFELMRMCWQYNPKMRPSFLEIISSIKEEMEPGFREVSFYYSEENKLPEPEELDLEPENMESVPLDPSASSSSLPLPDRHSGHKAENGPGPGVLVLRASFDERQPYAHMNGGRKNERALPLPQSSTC

| SMILES | IC50 [1] [nM] | IC50 [2] [nM] | Papp [3] [×10⁻⁶ cm/s] | permeability [3] [×10⁻⁶ cm/s] |
| --- | --- | --- | --- | --- |
| O=C(c1ccc(F)nc1)N1CCC[C@H]1c1nc(Nc2cc(C3CC3)[nH]n2)c2cccn2n1 | – | 162 | 72.1 | – |
| O=C(c1ccc(F)nc1)N1CCC[C@@H]1c1nc(Nc2cc(C3CC3)[nH]n2)c2cccn2n1 | 8400 | – | 93.5 | – |
| O=C1CC[C@@H](c2nc(Nc3cc(C4CC4)[nH]n3)c3cccn3n2)N1C(=O)c1ccc(F)nc1 | 11 | 508 | 60 | – |
| O=C(Nc1ccc(F)nc1)C1=C(c2nc(Nc3cc(C4CC4)[nH]n3)c3cccn3n2)CCC1 | 32 | 237 | 82.2 | – |

Other lines, results leading:

| IC50 [1] [nM] | IC50 [2] [nM] | Papp [3] [×10⁻⁶ cm/s] | permeability [3] [×10⁻⁶ cm/s] | SMILES |
| --- | --- | --- | --- | --- |
| 9.7 | 206 | 50.9 | – | O=C(Nc1ccc(F)nc1)[C@@H]1CCC[C@H]1c1nc(Nc2cc(C3CC3)n[nH]2)c2cccn2n1 (stereo in doubt; (+)-25) |
| 2.7 | 1 | 77 | – | O=C(Nc1ccc(F)nc1)[C@@H]1CCCN1c1nc(Nc2cc(C3CC3)[nH]n2)c2cccn2n1 |
| – | – | 63.4 | – | C[C@@]1(C(=O)Nc2ccc(F)nc2)CCCN1c1nc(Nc2cc(C3CC3)n[nH]2)c2cccn2n1 [BMS-754807] |
| 190 | 389 | – | 85.4 | O=C(Nc1ccc(F)nc1)[C@@H]1CCC[C@H]1c1nc(Nc2cc(C3CC3)n[nH]2)c2cccn2n1 (stereo in doubt; (-)-25) |
| – | 40 | 52.5 | – | O=C(NCc1nc(Nc2cc(C3CC3)n[nH]2)c2cccn2n1)c1ccc(F)nc1 |
